Results published in the NIST ThermoML archive (doi:10.1016/j.jct.2012.11.004).

Assay: mn = molality of the nth substance listed, in mol/kg
Conditions: 101 kPa, Liquid; for mass density: Vibrating tube method; for speed of sound: Pulse-echo method

O=S(=O)([O-])C(F)(F)F.O=S(=O)([O-])C(F)(F)F.O=S(=O)([O-])C(F)(F)F.[Gd+3] [gadolinium (III) trifluoromethanesulfonate] + CN(C)C=O
Conditions | mass density, 283.15 K [kg/m3] | mass density, 293.15 K [kg/m3] | mass density, 298.15 K [kg/m3] | mass density, 303.15 K [kg/m3] | mass density, 313.15 K [kg/m3] | mass density, 323.15 K [kg/m3] | mass density, 333.15 K [kg/m3] | speed of sound, 298.15 K [m/s]
m1 = 0.01967 | 966.39 | 956.87 | 952.11 | 947.35 | 937.76 | 928.14 | 918.46 | 1455.8
m1 = 0.02703 | 969.53 | 960.01 | 955.25 | 950.48 | 940.9 | 931.28 | 921.61 | 1455.2
m1 = 0.03489 | 972.9 | 963.38 | 958.61 | 953.84 | 944.26 | 934.64 | 924.97 | 1454.5
m1 = 0.04531 | 977.36 | 967.83 | 963.07 | 958.3 | 948.72 | 939.1 | 929.43 | 1453.6
m1 = 0.05527 | 981.65 | 972.13 | 967.36 | 962.59 | 953.01 | 943.4 | 933.75 | 1452.8
m1 = 0.07019 | 988.17 | 978.65 | 973.89 | 969.1 | 959.52 | 949.91 | 940.24 | 1451.5
m1 = 0.09028 | 997.06 | 987.52 | 982.77 | 977.97 | 968.39 | 958.77 | 949.11 | 1449.4
m1 = 0.108 | 1004.97 | 995.43 | 990.66 | 985.88 | 976.29 | 966.68 | 957.02 | 1448
m1 = 0.1249 | 1012.67 | 1003.13 | 998.36 | 993.58 | 983.99 | 974.37 | 964.71 | 1446.3
m1 = 0.146 | 1022.39 | 1012.83 | 1008.05 | 1003.28 | 993.69 | 984.07 | 974.42 | 1443.5
m1 = 0.1634 | 1030.52 | 1020.96 | 1016.18 | 1011.39 | 1001.8 | 992.19 | 982.54 | 1441.7
